Series [1] deals with Streptococcus hemolyticus. Put plainly: streak plate test, Inhibition Endpoint, Streptococcus hemolyticus. Particulars: Streptococcus pyogenes, Gram +, lower figure allows growth, higher figure inhibits growth. The format is cell-based.
The next series concerns Streptococcus fecalis. The series is described as follows: streak plate test, Inhibition Endpoint, Streptococcus fecalis. Format: cell-based. The note with it: Gram +, lower figure allows growth, higher figure inhibits growth.
The subject of another series is Micrococcus flavus. Put plainly: streak plate test, Inhibition Endpoint, Micrococcus flavus. The format is cell-based. The note with it: Gram +, lower figure allows growth, higher figure inhibits growth.
For series [2], the system named is Pasteurella pseudotuberculosis. Put plainly: microbe, parasite or virus in culture. The format is cell-based. The note with it: Yersinia pseudotuberculosis, read-out: Inhibition Endpoint.
Another series has as its system Gaffkya tetragena. Put plainly: streak plate test, Inhibition Endpoint, Gaffkya tetragena. Format: cell-based. Particulars: Gram +, lower figure allows growth, higher figure inhibits growth.
In the next series the test system is Escherichia coli. Put plainly: streak plate test, Inhibition Endpoint, Escherichia coli. Format: cell-based. Particulars: Gram -, lower figure allows growth, higher figure inhibits growth.
In another series the test system is Mycobacterium ranae. The series is described as follows: streak plate test, Inhibition Endpoint, Mycobacterium ranae. The format is cell-based. Particulars: Acid fast, lower figure allows growth, higher figure inhibits growth.
The subject of a further series is Shigella dysenteriae. The series is described as follows: streak plate test, Inhibition Endpoint, Shigella dysenteriae. The format is cell-based. The note with it: read-out: Inhibition Endpoint.
The next series deals with mice. Put plainly: acute oral toxicity in mice. The note with it: oral administration, mice.
The nature of series [3]: acute oral toxicity in mice. Particulars: mouse, in vivo, po.
Another series deals with Pseudomonas auriginosa. The series is described as follows: streak plate test, Inhibition Endpoint, Pseudomonas auriginosa. Format: cell-based. The note with it: Gram -, lower figure allows growth, higher figure inhibits growth.
The next series has as its system Staphylococcus aureus. The series is described as follows: streak plate test, Inhibition Endpoint, Staphylococcus aureus. The format is cell-based. The note with it: Gram +, lower figure allows growth, higher figure inhibits growth.
The next series deals with bacteria. The series is described as follows: antibacterial activity by the streak plate test (in words). Format: cell-based. The method, then:
(§1) The compound was tested for antibacterial and antifungal activity by the streak plate test, which is known in the art. The test substance was incorporated into several portions of an agar medium at several known concentrations and the mixtures were placed in Petri dishes. Then streaks of test organisms were applied to the surface of the medium, the dishes were incubated under growth-promoting conditions, and then examined for growth of organisms. The results are reported as the Inhibition End-Point Range, the lower figure signifying a concentration that allows growth and the higher figure being a concentration that inhibits growth.

In the next series the test system is fungi. The series is described as follows: antifungal activity by the streak plate test (in words). Format: cell-based. The method, then: as §1

Consider `CCCCCCCCCCCCCC(=O)OCC(C)(C)[N+](C)(C)C.[I-]` [Example 1, (2-myristoyloxy-1,1-dimethylethyl)-trimethylammonium iodide], for which the MIC in series [1] lay in the range of 1 to 5 mg/L; against Streptococcus fecalis, 1 to 5 mg/L; against Micrococcus flavus, 0.1 to 0.5 mg/L; in series [2] it was 1 to 5 mg/L; against Gaffkya tetragena, 1 to 5 mg/L; in the series on Escherichia coli, 100 to 500 mg/L. The MIC against Mycobacterium ranae was 1 to 5 mg/L; in the series on Shigella dysenteriae, 5 to 10 mg/L; in the series on Pseudomonas auriginosa, greater than 1000 mg/L; against Staphylococcus aureus, 1 to 5 mg/L. In the series on mice, the LD0 amounted to 600 mg/kg. In the series with mice, this compound returned an LD100 of 2000 mg/kg. The LD50 (commonly the dose at which mortality reaches 50%) in [3] was 1000 mg/kg. For the same compound, the antibacterial activity result in the series on bacteria is “powerful antibacterial activity”.

In the case of `CCCCCCCC(=O)OCC(C)(C)[N+](C)(C)C.[I-]` [Example 4, (2-octanoyloxy-1,1-dimethylethyl)trimethylammonium iodide], the MIC in series [1] is greater than 1000 mg/L; in the series on Streptococcus fecalis, greater than 1000 mg/L; in series [2] it was 100 to 500 mg/L; against Escherichia coli, 500 to 1000 mg/L; against Mycobacterium ranae, 100 to 500 mg/L; in the series with Shigella dysenteriae, greater than 1000 mg/L. Also, the MIC with Pseudomonas auriginosa was greater than 1000 mg/L; against Staphylococcus aureus, 100 to 500 mg/L. This compound also registered an LD0 in the series on mice of 800 mg/kg. The compound also displayed an LD100 with mice of 1700 mg/kg. Also, the LD50 in [3] stood at 1160 mg/kg.

As for `CCCCCCCCCCCC(=O)OCC(C)(C)[N+](C)(C)C.[I-]` [Example 2, (2-lauroyloxy-1,1-dimethylethyl)-trimethylammonium iodide], the MIC lay in the range of 5 to 10 mg/L in [1]; 5 to 10 mg/L with Streptococcus fecalis; 5 to 10 mg/L in series [2]; 100 to 500 mg/L against Escherichia coli; 1 to 50 mg/L in the series on Mycobacterium ranae; 10 to 50 mg/L in the series on Shigella dysenteriae. The results for the MIC against Pseudomonas auriginosa and against Staphylococcus aureus were 500 to 1000 mg/L and 1 to 5 mg/L, respectively. In the series on mice, this compound returned an LD0 of 500 mg/kg. The LD100 in the series on mice was 1700 mg/kg. In addition, in series [3], the LD50 was 900 mg/kg. In the series with fungi, the activity against fungi result is “only slight activity against fungi”.

In the case of `CCCCCCCCCCCCCCCC(=O)OCC(C)(C)[N+](C)(C)C.[I-]` [Example 3, (2-palmitoyloxy-1,1-dimethylethyl)-trimethylammonium iodide], the MIC was 1 to 5 mg/L in series [1]; 1 to 5 mg/L in the series on Streptococcus fecalis; 100 to 500 mg/L in series [2]; greater than 1000 mg/L against Escherichia coli; 50 to 100 mg/L in the series with Mycobacterium ranae; 50 to 100 mg/L with Shigella dysenteriae. Also, the MIC in the series on Pseudomonas auriginosa was greater than 1000 mg/L; against Staphylococcus aureus it was 1 to 5 mg/L. Besides, the LD0 in the series with mice came to 800 mg/kg. This compound gave an LD100 in the series on mice of 3200 mg/kg. This compound showed an LD50 in series [3] of 1490 mg/kg. Further, the activity against fungi entry with fungi was “only slightly active against fungi”.
